Results reported in US6936609B2, “Imidazotriazines for use as phosphodiesterase inhibitors” (Bayer HealthCare AG, priority 2001, dated 2005).

How the values were obtained:
PDE 10A = biological target: T1, PDE 10A (Homo sapiens, UniProt Q9Y233); test: Inhibition of PDE 10A (in vitro enzyme inhibition test); assay type: biochemical; conditions: recombinant full-length PDE10A expressed in Sf9 insect cells; substrate [5',8-3H] adenosine 3',5'-cyclic phosphate; 60 min at room temperature; scintillation proximity beads
T1 construct: is expressed recombinantly in full length in Sf9 insect cells; made in house; host or cells: Sf9 insect cells (Bac-to-Bac baculovirus system); lysate supernatant used as the enzyme preparation
Procedure: PDE10A (WO 01/29 199, FIG. 1A) is expressed recombinantly in full length in Sf9 insect cells (Invitrogen, Carlsbad, Calif.) with the aid of the Bac-to-Bac™ Baculovirus expression system of Life Technologies (Gaithersburg, Md.). 48 h after the infection, the cells are harvested and suspended in 20 ml (per 1 l of culture) of lysis buffer (50 mM tris HCl, pH 7.4, 50 mM NaCl, 1 mM MgCl2, 1.5 mM EDTA, 10% glycerol plus 20 μl of Protease Inhibitor Cocktail Set III [CalBiochem, La Jolla, Calif. USA]). The cells are treated at 4° C. for 1 minute with ultrasound and subsequently centrifuged at 10000 rpm for 30 minutes at 4° C. The supernatant (PDE10A preparation) was collected and stored at −20° C.
The test substances are dissolved and serially diluted in 100% DMSO for the determination of their in vitro action on PDE 10A. Typically, dilution series of 200 μM to 1.6 μM are prepared (resulting final concentrations in the test: 4 μM to 0.032 μM). In each case, 2 μl of the diluted substance solutions are introduced into the wells of microtitre plates (Isoplate; Wallac Inc., Atlanta, Ga.). 50 μl of a dilution of the PDE10A preparation described above are subsequently added. The dilution of the PDE10A preparation is chosen such that during the later incubation less than 70% of the substrate is reacted (typical dilution: 1:10000; dilution buffer: 50 mM tris/HCl pH 7.5, 8.3 mM MgCl2, 1.7 mM EDTA, 0.2% BSA). The substrate, [5′,8-^3H] adenosine 3′, 5′-cyclic phosphate (1 μCi/μl; Amersham Pharmacia Biotech., Piscataway, N.J.) is diluted 1:2000 to a concentration of 0.0005 μCi/μl with assay buffer (50 mM tris/HCl pH 7.5, 8.3 mM MgCl2, 1.7 mM EDTA). The enzyme reaction is finally started by addition of 50 μl (0.025 μCi) of the diluted substrate. The test batches are incubated at room temperature for 60 min and the reaction is stopped by addition of 25 μl of a suspension containing 18 mg/ml of Yttrium Scintillation Proximity Beads (Amersham Pharmacia Biotech., Piscataway, N.J.). The microtitre plates are sealed using a film and allowed to stand at room temperature for 60 min. The plates are subsequently measured for 30 s per well in a Microbeta scintillation counter (Wallac Inc., Atlanta, Ga.). IC50 values are determined with the aid of graphic plotting of the substance concentration against the percentage inhibition.

T1 sequence (Q9Y233 1-779 isoform Q9Y233-1): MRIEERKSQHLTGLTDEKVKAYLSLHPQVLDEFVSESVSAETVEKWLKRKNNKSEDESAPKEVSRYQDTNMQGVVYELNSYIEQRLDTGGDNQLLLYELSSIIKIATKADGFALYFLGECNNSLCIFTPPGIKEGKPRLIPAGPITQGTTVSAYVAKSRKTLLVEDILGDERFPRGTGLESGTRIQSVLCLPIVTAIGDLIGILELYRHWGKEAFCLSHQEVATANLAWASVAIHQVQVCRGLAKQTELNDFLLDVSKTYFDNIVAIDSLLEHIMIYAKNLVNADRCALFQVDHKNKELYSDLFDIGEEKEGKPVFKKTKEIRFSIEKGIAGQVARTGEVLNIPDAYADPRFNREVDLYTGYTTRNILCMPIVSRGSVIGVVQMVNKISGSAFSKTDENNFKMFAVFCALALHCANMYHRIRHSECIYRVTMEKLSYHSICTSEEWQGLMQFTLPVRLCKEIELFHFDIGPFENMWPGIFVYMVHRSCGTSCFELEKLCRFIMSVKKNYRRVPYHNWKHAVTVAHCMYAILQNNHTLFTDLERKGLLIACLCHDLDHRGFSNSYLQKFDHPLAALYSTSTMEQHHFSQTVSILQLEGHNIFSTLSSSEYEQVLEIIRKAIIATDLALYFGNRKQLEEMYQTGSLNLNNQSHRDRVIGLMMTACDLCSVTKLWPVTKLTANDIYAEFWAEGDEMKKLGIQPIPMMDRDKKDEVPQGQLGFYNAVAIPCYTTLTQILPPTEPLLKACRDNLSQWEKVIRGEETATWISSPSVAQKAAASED

Row | melting point | IC50 (PDE 10A) | Compound
1 | 98 to 99 °C | – | CCCc1nc(C)c2c(NCc3ccc(OC)cc3OC)nc(-c3ccccc3OCC)nn12 [Example 46, N-(2,4-Dimethoxybenzyl)-2-(2-ethoxyphenyl)-5-methyl-7-propylimidazo[5,1-f]-[1,2,4]triazin-4-amine]
2 | 220 °C | – | COc1cc(OC)cc(-c2nc(Oc3cc(OC)c(OC)c(OC)c3)c3c(C)nc(C)n3n2)c1 [Example 27, 2-(3,5-Dimethoxyphenyl)-5,7-dimethyl-4-(3,4,5-trimethoxyphenoxy)imidazo[5,1-f]-[1,2,4]triazine]
3 | 188 to 190 °C | – | CCOc1ccc(CCNc2nc(-c3ccc(Br)cc3)nn3c(C)nc(C)c23)cc1OC [Example 35, 2-(4-Bromophenyl)-N-[2-(4-ethoxy-3-methoxyphenyl)ethyl]-5,7-dimethylimidazo-[5,1-f][1,2,4]triazin-4-amine]
4 | 160 °C | – | CCc1nc(C2CCCC2)n2nc(-c3ccc(OC)cc3)nc(Nc3cc(OC)c(OC)c(OC)c3)c12 [Example 26, N-[7Cyclopentyl-5-ethyl-2-(4-methoxyphenyl)imidazo[5,1-f][1,2,4]triazin-4-yl]-N-(3,4,5-trimethoxyphenyl)amine]
5 | 226 to 228 °C | – | CCCc1nc(C)c2c(Sc3ccc(NC(C)=O)cc3)nc(-c3ccccc3OCC)nn12 [Example 36, N-(4-{[2-(2-Ethoxyphenyl)-5-methyl-7-propylimidazo[5,1-f][1,2,4]triazin-4-yl]-sulphanyl}phenyl)acetamide]
6 | 160 °C | – | COc1ccc(-c2nc(Oc3cc(OC)c(OC)c(OC)c3)c3c(C)nc(CC(C)C)n3n2)cc1Cl [Example 30, 2-(3-Chloro-4-methoxyphenyl)-7-isobutyl-5-methyl-4-(3,4,5-trimethoxyphenoxy)-imidazo[5,1-f][1,2,4]triazine]
7 | 199 °C | – | COc1cc(Oc2nc(-c3ccc(Br)cc3)nn3c(C)nc(C)c23)cc(OC)c1OC [Example 28, 2-(4-Bromophenyl)-5,7-dimethyl-4-(3,4,5-trimethoxyphenoxy)imidazo[5,1-f]-[1,2,4]triazine]
8 | 119 to 122 °C | – | COc1ccc(CNc2nc(-c3ccc(Br)cc3)nn3c(C)nc(C)c23)cc1OC [Example 51, 2-(4-Bromophenyl)-N-(3,4-dimethoxybenzyl)-5,7-dimethylimidazo[5,1-f]-[1,2,4]triazin-4-amine]
9 | 173 °C | – | COc1ccc(-c2nc(Nc3cc(C)c(OC)c(C)c3)c3c(C)nc(C)n3n2)cc1OC [Example 14, 2-(3,4-Dimethoxyphenyl)-N-(4-methoxy-3,5-dimethylphenyl)-5,7-dimethylimidazo-[5,1-f][1,2,4]triazin-4-amine]
10 | – | 210 nM | COc1ccc(Nc2nc(-c3ccc(OC)c(OC)c3)nn3c(C4CCCC4)nc(C)c23)cc1Cl [Example 16, N-(3-Chloro-4-methoxyphenyl)-7-cyclopentyl-2-(3,4-dimethoxyphenyl)-5-methyl-imidazo[5,1-f][1,2,4]triazin-4-amine]
11 | 176 to 179 °C | – | COc1cc(OC)cc(-c2nc(Nc3cc(OC)c(OC)c(OC)c3)c3c(C)nc(C)n3n2)c1 [Example 54, 2-(3,5-Dimethoxyphenyl)-5,7-dimethyl-N-(3,4,5-trimethoxyphenyl)imidazo[5,1-f]-[1,2,4]triazin-4-amine]
12 | – | 2400 nM | CCCc1nc(C)c2c(Nc3cccc(O)c3)nc(-c3ccccc3OCC)nn12 [Example 43, 3-{[2-(2-Ethoxyphenyl)-5-methyl-7-propylimidazo[5,1-f][1,2,4]triazin-4-yl]-amino}phenol]
13 | 153 °C | – | CCCc1nc(C)c2c(Oc3cc(OC)c(OC)c(OC)c3)nc(-c3ccccc3OCC)nn12 [Example 101, 2-(2-Ethoxyphenyl)-5-methyl-7-propyl-4-(3,4,5-trimethoxyphenoxy)imidazo[5,1-f]-[1,2,4]triazine]
14 | 96 °C | – | CCCc1nc(C)c2c(Nc3cccc(Br)c3)nc(-c3ccccc3OCC)nn12 [Example 39, N-(3-Bromophenyl)-2-(2-ethoxyphenyl)-5-methyl-7-propylimidazo[5,1-f]-[1,2,4]triazin-4-amine]
15 | 184 °C | – | COc1ccc(-c2nc(Oc3cc(OC)c(OC)c(OC)c3)c3c(C)nc(C)n3n2)cc1OC [Example 22, 2-(3,4-Dimethoxyphenyl)-5,7-dimethyl-4-(3,4,5-trimethoxyphenoxy)imidazo[5,1-f]-[1,2,4]triazine]
16 | 188 °C | – | COc1ccc(-c2nc(NCc3cc(OC)c(OC)c(OC)c3)c3c(C)nc(C4CCCC4)n3n2)cc1OC [Example 17, 7-Cyclopentyl-2-(3,4-dimethoxyphenyl)-5-methyl-N-(3,4,5-trimethoxybenzyl)-imidazo[5,1-f][1,2,4]triazin-4-amine]
17 | 185 °C | – | COc1ccc(Nc2nc(-c3ccc(OC)c(OC)c3)nn3c(C4CCCC4)nc(C)c23)cc1 [Example 20, 7-Cyclopentyl-2-(3,4-dimethoxyphenyl)-N-(4-methoxyphenyl)-5-methylimidazo-[5,1-f][1,2,4]triazin-4-amine]
18 | 112 to 114 °C | – | CCCc1nc(C)c2c(Nc3cc(OC)c(OC)c(OC)c3)nc(-c3ccccc3OCC)nn12 [Example 44, 2-(2-Ethoxyphenyl)-5-methyl-7-propyl-N-(3,4,5-trimethoxyphenyl)imidazo[5,1-f]-[1,2,4]triazin-4-amine]
19 | 180 °C | – | COc1ccc(-c2nc(Nc3cc(C)c(OC)c(C)c3)c3c(C)nc(C4CCCC4)n3n2)cc1OC [Example 15, 7-Cyclopentyl-2-(3,4-dimethoxyphenyl)-N-(4-methoxy-3,5-dimethylphenyl)-5-methylimidazo[5,1-f][1,2,4]triazin-4-amine]
20 | 195 °C | – | COc1ccc(Nc2nc(-c3ccc(OC)c(OC)c3)nn3c(C)nc(C)c23)cc1Cl [Example 13, N-(3-Chloro-4-methoxyphenyl)-2-(3,4-dimethoxyphenyl)-5,7-dimethylimidazo [5,1-f][1,2,4]triazin-4-amine]
21 | 161 °C | – | COc1ccc(-c2nc(SCc3cccnc3)c3c(C)nc(C)n3n2)cc1OC [Example 4, 2-(3,4-Dimethoxyphenyl)-5,7-dimethyl-4-[(3-pyridinylmethyl)sulphanyl]imidazo-[5,1-f][1,2,4]triazine]
22 | 166 °C | – | CCC(CC)c1nc(C)c2c(Oc3cc(OC)c(OC)c(OC)c3)nc(-c3ccc(OC)c(Cl)c3)nn12 [Example 32, 2-(3Chloro-4-methoxyphenyl)-7-(1-ethylpropyl)-5-methyl-4-(3,4,5-trimethoxyphenoxy)imidazo[5,1-f][1,2,4]triazine]
23 | 119 °C | – | CCc1nc(C2CCCC2)n2nc(-c3ccc(OC)c(S(=O)(=O)N4CCOCC4)c3)nc(Oc3cc(OC)c(OC)c(OC)c3)c12 [Example 25, 7-Cyclopentyl-5-ethyl-2-[4-methoxy-3-(4-morpholinylsulphonyl)phenyl]-4-(3,4,5-trimethoxyphenoxy)imidazo[5,1-f][1,2,4]triazine]
24 | 213 °C | – | COc1ccc(-c2nc(Oc3cc(OC)c(OC)c(OC)c3)c3c(C)nc(C)n3n2)cc1Cl [Example 29, 2-(3-Chloro-4-methoxyphenyl)-5,7-dimethyl-4-(3,4,5-trimethoxyphenoxy)imidazo-[5,1-f][1,2,4]triazine]
25 | 220 to 222 °C | – | COc1ccc(-c2nc(Nc3ccc(OC)c(OC)c3)c3c(C)nc(C)n3n2)cc1Cl [Example 33, 2-(3-Chloro-4-methoxyphenyl)-N-(3,4-dimethoxyphenyl)-5,7-dimethylimidazo-[5,1-f][1,2,4]triazin-4-amine]
26 | 126 °C | – | COc1cccc(Nc2nc(-c3ccc(OC)c(OC)c3)nn3c(C4CCCC4)nc(C)c23)c1 [Example 23, 7-Cyclopentyl-2-(3,4-dimethoxyphenyl)-N-(3-methoxyphenyl)-5-methylimidazo-[5,1-f][1,2,4]triazin-4-amine]
27 | 194 to 195 °C | – | COc1ccc(-c2nc(Nc3cc(OC)c(OC)c(OC)c3)c3c(C)nc(C)n3n2)cc1Cl [Example 34, 2-(3-Chloro-4-methoxyphenyl)-N-(3,4,5-trimethoxyphenyl)-5,7-dimethylimidazo-[5,1-f][1,2,4]triazin-4-amine]
